Format in all cases: in vivo, English bulldog
Series [1] concerns English bulldogs. Nature of the series: Direct observation of behavior after serotonin antagonists. Conditions: i.v. during quiet wakefulness; several dogs. The source says:
The behavior of the dogs was observed directly throughout this study and for several hours following the last injection by one investigator seated adjacent the dog. The investigator documented both behavioral state and movement and helped the dog to maintain wakefulness throughout the study.

The subject of series [2] is English bulldogs. Description: Waking oxyhemoglobin saturation (SaO2) after i.v. serotonin antagonist. To be noted: for mean SaO2: mean±SE. As for the experimental part:
(§1) All studies were conducted using an unrestrained dog, either housed within a well-ventilated, electronically shielded, clear Plexiglass™ recording chamber or seated atop a table in the recording room. In either case, an investigator remained with the dog throughout the study to observe the dog's head and neck movements and to document the behavioral state of the dog. EMG signals were band-pass filtered at 50 to 2,000 Hertz. DIA EMG signals were passed through an analog EKG blanker (CWE EKG blanker; CWE, Ardmore, Pa.) and then through a third-order Paynter filter (CWE MA) having a 100-millisecond time constant to obtain a moving average of the DIA EMG. Signals of the SH and GH EMG were also passed through Paynter filters with the same time constants (100 ms) to obtain moving averages of these signals. Oxyhemoglobin saturation was measured continuously with a Biox IIA oximeter attached to the dog's pinna. Signals for the GH EMG, GH moving average (MA), SH EMG, SH MA, DIA EMG, DIA MA, and oxyhemoglobin saturations were recorded polygraphically (10 millimeters per second) using a chart recorder with high frequency response, i.e., as much as 10 kHz (Gould ES1000; Gould Instruments, Cleveland, Ohio). Signals were also recorded on analog tape using an eight-channel FM tape recorder (A. R. Vetter, Roseburg, Pa.).
(§2) After obtaining baseline recordings of all variables for at least 5 minutes during quiet wakefulness and after obtaining recordings during the 5 minutes following administration of a saline control injection, 0.25 to 0.50 milligrams per kilogram body weight of one of the serotonin antagonists was administered to each dog through a peripheral intravenous line. All variables were continuously recorded. Injections were repeated every 6 minutes either until a total dose of 1 milligram per kilogram body weight had been administered or until the oxygen saturations fell below 85%. These limits were deemed to ensure the dogs' safety, based on an initial study using one dog. This dog, EBD-G was hypoxic at baseline and developed profound reductions in UAW muscle activity with desaturations to 75% after a total dose of 1.0 milligram per kilogram body weight of methysergide. The interval between repeated injections was selected to be 6 minutes to allow for 5 minute sampling periods for each dose. The duration of action of serotonin antagonists is known to be greater than 60 minutes (Bredberg et al., supra; Devaud et al., supra).
The effects of ritanserin and methysergide on oxyhemoglobin saturations were analyzed in a similar fashion; i.e., repeated measures of ANOVA for baseline and drug dose conditions. Oxyhemoglobin saturation was measured every 10 scans.

Series [3] relates to English bulldogs. Description: Diaphragm (DIA) EMG activity during wakefulness after i.v. serotonin antagonist. To be noted: for DIA peak amplitude, mean: mean±SE. Here is the method:
(§3) Five diaphragm electromyographic (DIA EMG) electrodes were implanted in the costal musculature of the right hemidiaphragm 7 to 9 centimeters lateral to the xyphoid process. Three other electrodes were embedded into the right sternohyoid (SH) muscle and, three more were embedded into the right geniohyoid (GH) muscle. Both SH and GH muscles are readily palpable in the English bulldog.
as §1, §2
The effects of serotonin antagonists on diaphragm activity were similarly analyzed. Briefly, the measures of diaphragm activity were the peak amplitudes for all respiratory bursts in each condition. […] Acquisition of these measures has also been previously described (Hendricks et al., 1991, Am. Rev. Respir. Dis. 144:1112-1120). Mean values across all respiratory bursts of a 5 minute sample period were determined for each dog, and these values were used to perform repeated measures of ANOVA comparing baseline values with post-administration values.

For series [4], the system named is English bulldogs. Description: Respiratory timing from DIA moving average signals. Conditions: 0.50 mg/kg; three dogs. An excerpt:
Respiratory timing variables were obtained from the DIA MA signals, using methods previously described to determine inspiratory time (T1), expiratory time (TE), total time of a respiratory burst (Ttot), and the duty cycle ratio (T1/Ttot) (Hendricks et al., 1987, J. Appl. Physiol. 63:1344-1350; Hendricks et al., 1991, Am Rev. Respir. Dis. 144:1112-1120).

Series [5] deals with English bulldogs. Nature of the series: Upper airway dilator muscle (GH, SH) EMG activity during wakefulness after i.v. serotonin antagonist. To be noted: mean±SE.
Source text: Following the baseline sleep study to document sleep-disordered breathing, each dog underwent a surgical procedure for the implantation of recording electrodes. For this procedure, dogs were premedicated with 5 to 10 micrograms per kilogram body weight atropine sulfate intramuscularly. In the cases of two bulldogs experiencing severe sleep-disordered breathing, intubation and general anesthesia were thought to pose a significant risk for postoperative respiratory failure. These two dogs were therefore sedated only using 20 to 40 micrograms per kilogram body weight oxymorphone administered intramuscularly. The six remaining dogs were anesthetized initially with sodium thiopental (15 to 30 milligrams per kilogram body weight) administered intravenously. The dogs were intubated and maintained under general anesthesia using 0.5 to 2.5% (v/v) inhalational halothane throughout the procedure.
Recording electrodes were implanted for the study of diaphragm and upper airway dilator muscle activity. Electrodes were fashioned from 0.7 millimeter multi-stranded Teflon-coated stainless steel wire. The insulation was stripped from 5 to 8 millimeters at the proximal tip. The proximal tip of each electrode was implanted transcutaneously into the relevant musculature using methods described by Basmajian et al. (1962, J. Appl. Physiol. 17:839).
as §3
Two ground electrodes were embedded transcutaneously contacting both the occipital skull and dorsal neck musculature. Distal tips of all electrodes were soldered onto a 25-pin Winchester-type connector. Electrodes and the connector were secured to each dog with elastic adhesive dressings over the torso and neck.
as §1
The effects of serotonin antagonists on upper airway dilator muscle activity and breathing during wakefulness were assessed. Serotonin antagonists which were administered were methysergide maleate and ritanserin.
Ritanserin is a relatively selective serotonin antagonist at types 1C and 2 serotonin receptors (Devaud et al., 1992, J. Neurochem. 59:1459-1466). Ritanserin was selected for study on the basis that the IC and 2 subtypes of serotonin receptors appear to be involves in serotonin facilitation of hypoglossal motoneurons in vivo (Kugin et al., supra). […]

With `CC[C@@H](CO)NC(=O)[C@@H]1C=C2c3cccc4c3c(cn4C)C[C@H]2N(C)C1` [methysergide], the “behavior (head and neck movements, alertness)” value in the series with English bulldogs [1] was “increase in staring behaviors”. Further, the “mean SaO2” value is 86.6±2.0% in the series on English bulldogs [2] (0.50 mg/kg i.v., baseline ritanserin 92.1±0.6, methysergide 90.3±2.7) and 85.6±0.9% with English bulldogs [2] (1.0 mg/kg i.v. cumulative, baseline 90.3±2.7). The “oxygen desaturations in dog EBD-G (hypoxic at baseline)” value with English bulldogs [2] (total dose 1.0 mg/kg i.v., single dog, initial study) is listed as 75%. In addition, the results for the “DIA peak amplitude as percentage of the baseline value” in the series on English bulldogs [3] (0.50 mg/kg i.v.) and with English bulldogs [3] (1.0 mg/kg i.v. cumulative) were 67.7% and 39.6%, respectively. Moreover, the “DIA peak amplitude, mean” value in the series with English bulldogs [3] (0.50 mg/kg i.v., baseline ritanserin 17.63±2.79, methysergide 7.07±2.37) came out at 4.74±0.25 arbitrary units; with English bulldogs [3] (1.0 mg/kg i.v. cumulative, three dogs, baseline 7.07±2.37), 2.80±1.48 arbitrary units. Moreover, the “TE reduced by” value in the series on English bulldogs [4] is on record as 33.8%. Besides, the “TI reduced by” value in the series on English bulldogs [4] was 12.7%. The “Ttot reduced by” value in the series on English bulldogs [4] is given as 23.9%. The SH peak amplitude was 3.83±0.28 arbitrary units in the series with English bulldogs [5] (0.50 mg/kg i.v., baseline ritanserin 14.41±3.93, methysergide 5.75±0.18) and 2.77±0.38 arbitrary units in the series with English bulldogs [5] (1.00 mg/kg i.v. cumulative, four dogs, baseline 5.75±0.18).

The values above are taken from patent US6387907B1, “Use of serotonin agonists to alleviate disordered breathing episodes in a mammal” (The Trustees of the University of Pennsylvania, priority 1997, dated 2002).
